Several values for one entry are separate records, joined by “and”; a condition that tells them apart may be missing. Equal entries are not always repeated.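 1) Cells in 96-well plates. 2) Compound, 48 h, 5 concentrations. 3) Linear interpolation between surrounding doses. 4) Unreached endpoint = highest concentration. The concentration for 50% growth inhibition is given as GI50. TGI is the concentration that stops growth completely.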 Some results are limits rather than exact numbers.

Holding throughout (test): inhibition of tumour cell growth, NCI panel, 48 h
Experiment [1] deals with HCT-15 colon.
Experiment [2] concerns HL-60(TB) leukemia.
In experiment [3] the test system is M14 melanoma.
In experiment [4] the test system is OVCAR-5 ovarian.
Experiment [5] deals with OVCAR-4 ovarian.
Experiment [6] deals with CCRF-CEM leukemia.
Experiment [7] has as its system SW-620 colon.
In experiment [8] the test system is SK-MEL-5 melanoma.
Experiment [9] has as its system SK-MEL-2 melanoma.
For experiment [10], the system named is UACC-257 melanoma.

Regarding `CN(C)CC/C=C1\c2ccccc2Sc2ccc(Cl)cc21`, the GI50 in experiment [1] is 3.79 µM; in experiment [2], 4.46 µM; in experiment [3], 1.87 µM; in experiment [4], 4.61 µM; in experiment [5], 3.72 µM; in experiment [6], 3.36 µM. For the same compound, the GI50 is 2.18 µM in [7], 1.62 µM in experiment [8], 1.95 µM in experiment [9] and 1.49 µM in [10]. Besides, the TGI in experiment [1] is 14 µM and 30.6 µM; in [2], 13.7 µM and 27.7 µM; in experiment [3], 3.58 µM and 11.4 µM; in experiment [4] it was 17.9 µM and 27.8 µM; in [5], 13.9 µM and 28.5 µM; in [6], 15.4 µM and 25.2 µM. In addition, the TGI is 5.4 µM and 35.4 µM in experiment [7]; 3 µM and 28.6 µM in experiment [8]; 3.71 µM and 31.7 µM in experiment [9]; 3.11 µM and 20.6 µM in experiment [10].
For the compound `N=c1nc(N)c2cc3c(N)nc(=N)c3cc12`, the TGI in experiment [1] was over 100 µM; in experiment [2], 6.78 µM; in experiment [3], 27.9 µM; in [4], 73.9 µM; in experiment [5] it was 51.2 µM; in [6], 26.8 µM. Further, the TGI in experiment [7] was 44 µM; in experiment [8] it was over 100 µM; in experiment [9], over 46.5 µM; in [10], 28.1 µM.
As to `COc1ccc(OC)c(/C=C/c2nnc(Nc3ccc(Cl)cc3)o2)c1`, the GI50 was 34.1 µM in experiment [1]; over 100 µM in [2]; 20.7 µM in [3]; 32.5 µM in experiment [4]; 2.44 µM in [5]; over 100 µM in experiment [6]. Also, the GI50 in [7] is 18.3 µM; in experiment [8], 7.17 µM; in [9] it was 9.66 µM; in [10], 21.3 µM. In addition, the TGI in experiment [1] is over 100 µM; in experiment [2], over 100 µM; in experiment [3], over 100 µM; in experiment [4] it was over 100 µM; in experiment [5] it was 6.76 µM; in experiment [6], over 100 µM. Further, the TGI in experiment [7], in [8], in experiment [9] and in [10] was over 100 µM throughout.
`CS(=O)(=O)c1ccc(N/N=C/c2c(-c3ccc(S(C)(=O)=O)cc3)[nH]c3ccc(F)cc23)cc1`: the GI50 was 18.1 µM in [1]; 2.59 µM in [2]; 2.16 µM in [3]; over 50 µM in experiment [4]; 1.97 µM in [5]; 1.2 µM in experiment [6]. Besides, the GI50 in [7] is 4.57 µM; in experiment [8], 0.792 µM; in experiment [9], 1.74 µM; in [10], 1.8 µM. Further, the TGI in experiment [1], in experiment [2], in experiment [3], in [4], in [5] and in experiment [6] was over 50 µM each time. Besides, the TGI in experiment [7] was over 50 µM; in experiment [8], 1.5 µM; in experiment [9], 4.73 µM; in experiment [10], 20.2 µM.
For `CNC(=O)c1ccc(Nc2ncc(C(F)(F)F)c(NCc3nccnc3N(C)S(C)(=O)=O)n2)cc1`, the GI50 was 2.92 µM and 2.65 µM and 2.57 µM in [1]; 2.02 µM and 2.19 µM and 2.49 µM in experiment [2]; 2 µM and 2.27 µM and 1.98 µM in [3]; 2.18 µM and 1.98 µM and 1.93 µM in experiment [4]; 5.37 µM and 2.41 µM and 1.9 µM in experiment [5]; 3.27 µM and 3.21 µM and 3.36 µM in [6]. The GI50 in experiment [7] was 2.82 µM and 3.21 µM and 2.74 µM; in experiment [8], 1.85 µM and 2.1 µM and 2.09 µM; in experiment [9] it was 0.783 µM and 1.32 µM and 1.6 µM; in experiment [10], 4.66 µM and 3.75 µM. Also, the TGI in experiment [1] was > 10 µM and 11.3 µM and 12.6 µM; in experiment [2], 8.1 µM and 6.09 µM and 7.7 µM; in [3] it was > 10 µM and 11.6 µM and 19 µM; in experiment [4], > 10 µM and 9.03 µM and 9.56 µM; in experiment [5], > 10 µM and 12.8 µM and 10.5 µM; in [7], > 10 µM and 9.82 µM and 11.7 µM. Also, the TGI is 4.59 µM and 4.55 µM and 5.49 µM in experiment [8]; 3.71 µM and 4.28 µM and 4.63 µM in experiment [9]; > 10 µM and 11.2 µM and 15.5 µM in experiment [10].
For `CCOC(=O)[C@H](CSSc1ncnc2cc[nH]c12)NC(=O)[C@@H](C)c1ccc2cc(OC)ccc2c1`, the GI50 is 1.73 µM in experiment [1]; 1.04 µM in experiment [2]; 0.13 µM in experiment [3]; 0.929 µM in experiment [4]; 2.03 µM in experiment [5]; 0.532 µM in experiment [6]. The GI50 in experiment [7] was 1.64 µM; in experiment [8] it was 2.25 µM; in experiment [9], 0.791 µM; in [10] it was 3.62 µM. Further, the TGI in experiment [1] was over 100 µM; in experiment [2] it was over 100 µM; in experiment [3], over 62.1 µM; in experiment [4], over 100 µM; in [5], over 100 µM; in [6] it was over 100 µM. Further, the TGI is over 100 µM in experiment [7], over 32.5 µM in experiment [8], over 29 µM in experiment [9] and over 100 µM in experiment [10].
For `CN1CCC23c4c5ccc(O)c4OC2C(=NN=C2CCC4(O)C6Cc7ccc(O)c8c7C4(CCN6C)C2O8)CCC3(O)C1C5` (centres undefined), the TGI in [1], in experiment [2], in experiment [3], in experiment [4], in [5] and in experiment [6] was over 100 µM in each case. The TGI in experiment [7], in experiment [8], in experiment [9] and in [10] was over 100 µM each time.
Regarding `COc1ccc(-c2coc3ncnc(N)c23)cc1`, the GI50 in experiment [1], in experiment [2], in [3], in experiment [4], in [5] and in experiment [6] was over 25 µM throughout. Also, the GI50 in [7], in experiment [8], in experiment [9] and in experiment [10] was over 25 µM each time. Besides, the TGI in experiment [1], in experiment [2], in experiment [3], in [4], in experiment [5] and in experiment [6] was over 25 µM throughout. For the same compound, the TGI in experiment [7], in experiment [8], in experiment [9] and in [10] was over 25 µM throughout.

Source of the values: PubChem BioAssay (NCI).
